Assay results as given in US10435399B2, “HDAC6 inhibitory heterocyclic compound” (TAKEDA PHARMACEUTICAL COMPANY LIMITED, priority 2017, dated 2019).

target: T1, HDAC6 enzyme (Homo sapiens, UniProt Q9UBN7); test: HDAC6 enzyme inhibitory activity (HDAC-Glo I/II Assay kit); format: biochemical; conditions: 10 μM; wells without enzyme = 100% inhibition; read-out: HDAC6 inhibitory rate (%) (10 μM)
T1 construct: transducing full length HDAC6 gene into Sf-9 insect cells; GST; purchased SignalChem; host or cells: Sf-9 insect cells
T1 sequence (Q9UBN7 1-1215): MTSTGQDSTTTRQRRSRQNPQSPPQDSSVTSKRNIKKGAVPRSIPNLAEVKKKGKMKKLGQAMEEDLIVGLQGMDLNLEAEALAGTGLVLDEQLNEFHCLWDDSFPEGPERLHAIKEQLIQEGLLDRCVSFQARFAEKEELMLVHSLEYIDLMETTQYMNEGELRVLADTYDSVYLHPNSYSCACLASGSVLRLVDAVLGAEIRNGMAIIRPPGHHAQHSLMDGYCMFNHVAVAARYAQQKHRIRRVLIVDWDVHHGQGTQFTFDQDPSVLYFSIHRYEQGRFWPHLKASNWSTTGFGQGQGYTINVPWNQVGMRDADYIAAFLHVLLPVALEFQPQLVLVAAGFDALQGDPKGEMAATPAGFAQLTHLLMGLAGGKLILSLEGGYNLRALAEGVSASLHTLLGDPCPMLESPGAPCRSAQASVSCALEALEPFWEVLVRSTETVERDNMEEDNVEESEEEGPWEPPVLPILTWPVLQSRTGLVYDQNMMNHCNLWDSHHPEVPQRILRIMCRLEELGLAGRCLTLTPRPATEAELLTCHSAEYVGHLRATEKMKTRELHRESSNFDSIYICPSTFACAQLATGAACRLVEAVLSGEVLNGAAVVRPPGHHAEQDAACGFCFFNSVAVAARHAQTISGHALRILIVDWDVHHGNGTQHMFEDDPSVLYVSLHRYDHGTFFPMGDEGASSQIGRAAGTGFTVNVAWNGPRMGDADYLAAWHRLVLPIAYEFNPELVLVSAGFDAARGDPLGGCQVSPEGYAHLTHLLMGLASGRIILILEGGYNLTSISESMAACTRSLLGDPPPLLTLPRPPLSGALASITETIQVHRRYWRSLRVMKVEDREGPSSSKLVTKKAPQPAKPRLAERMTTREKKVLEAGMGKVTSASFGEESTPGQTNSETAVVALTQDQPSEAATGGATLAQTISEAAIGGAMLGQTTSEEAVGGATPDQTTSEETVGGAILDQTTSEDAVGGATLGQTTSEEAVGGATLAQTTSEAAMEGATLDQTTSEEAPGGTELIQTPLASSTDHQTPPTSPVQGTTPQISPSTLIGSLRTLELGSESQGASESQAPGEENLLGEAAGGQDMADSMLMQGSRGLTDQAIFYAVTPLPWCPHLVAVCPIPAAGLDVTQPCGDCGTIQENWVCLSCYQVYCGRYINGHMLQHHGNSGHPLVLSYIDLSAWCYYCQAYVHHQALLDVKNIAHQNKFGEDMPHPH
Outline: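 Test compound is preincubated 60 min at RT with full-length insect-cell HDAC6 in Tris-HCl pH 7.5 with 135 mM NaCl and 1 mM MgCl2. A 20 min room-temperature HDAC-Glo reaction follows, with luminescent read-out.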

Compound	inhibition at 10 µM
O=C(N[C@@H]1CCOC[C@H]1N1Cc2c(F)cc(-c3nnc(C(F)F)o3)cc2C1=O)c1ccccc1Cl [Example 180, 2-chloro-N-((3S,4R)-3-(6-(5-(difluoromethyl)-1,3,4-oxadiazol-2-yl)-4-fluoro-1-oxo-1,3-dihydro-2H-isoindol-2-yl)tetrahydro-2H-pyran-4-yl)benzamide]	100%
CC(=O)N[C@@H]1CCCC[C@H]1N1Cc2ncc(-c3nnc(C(F)F)o3)cc2C1=O [Example 449, N-((1R,2R)-2-(3-(5-(difluoro-methyl)-1,3,4-oxadiazol-2-yl)-5-oxo-5,7-dihydro-6H-pyrrolo[3,4-b]pyridin-6-yl)cyclohexyl) acetamide]	100%
O=C1c2cc(-c3nnc(C(F)F)o3)ccc2CN1[C@@H]1CCCC[C@H]1NS(=O)(=O)C1CC1 [Example 246, N-((1R,2R)-2-(6-(5-(difluoro-methyl)-1,3,4-oxadiazol-2-yl)-1-oxo-1,3-dihydro-2H-isoindol-2-yl)cyclohexyl)cyclopropane-sulfonamide]	100%
CC(C)(C(=O)N[C@@H]1CCOC[C@H]1N1Cc2c(F)cc(-c3nnc(C(F)F)o3)cc2C1=O)C(F)(F)F [Example 175, N-((3S,4R)-3-(6-(5-(difluoromethyl)-1,3,4-oxadiazol-2-yl)-4-fluoro-1-oxo-1,3-dihydro-2H-isoindol-2-yl)tetrahydro-2H-pyran-4-yl)-3,3,3-trifluoro-2,2-dimethylpropanamide]	100%
Cc1nc2ccccc2n1[C@@H]1CCCC[C@H]1N1Cc2ncc(-c3nnc(C(F)F)o3)cc2C1=O [Example 503, 3-(5-(difluoromethyl)-1,3,4-oxadiazol-2-yl)-6-((1R,2R)-2-(2-methyl-1H-benzimidazol-1-yl)cyclohexyl)-6,7-dihydro-5H-pyrrolo[3,4-b]pyridin-5-one]	99%
O=C1c2cc(-c3nnc(C(F)F)o3)cnc2CN1[C@@H]1CCCC[C@H]1n1cccn1 (racemic) [Example 526, 3-(5-(difluoromethyl)-1,3,4-oxadiazol-2-yl)-6-((1RS,2RS)-2-(1H-pyrazol-1-yl)cyclohexyl)-6,7-dihydro-5H-pyrrolo[3,4-b]pyridin-5-one]	101%
O=C1c2cc(-c3nnc(C(F)F)o3)cnc2CN1c1ccc(F)cc1-c1cnn(C(F)F)c1 [Example 408, 3-(5-(difluoro-methyl)-1,3,4-oxadiazol-2-yl)-6-(2-(1-(difluoro-methyl)-1H-pyrazol-4-yl)-4-fluorophenyl)-6,7-dihydro-5H-pyrrolo[3,4-b] pyridin-5-one]	99%
O=C(N[C@@H]1CCCC[C@H]1N1Cc2c(F)cc(-c3nnc(C(F)F)o3)cc2C1=O)[C@@H]1CC1(F)F [Example 185, (1S)-N-((1R,2R)-2-(6-(5-(difluoromethyl)-1,3,4-oxadiazol-2-yl)-4-fluoro-1-oxo-1,3-dihydro-2H-isoindol-2-yl)cyclohexyl)-2,2-difluorocyclopropanecarboxamide]	100%
O=C1c2cc(-c3nnc(C(F)F)o3)cc(F)c2CN1[C@@H]1CCCC[C@H]1NS(=O)(=O)CC(F)(F)F [Example 244]	101%
O=C1c2cc(-c3nnc(C(F)F)o3)cnc2CN1Cc1ccccn1 [Example 362, 3-(5-(difluoromethyl)-1,3,4-oxadiazol-2-yl)-6-(pyridin-2-yl-methyl)-6,7-dihydro-5H-pyrrolo[3,4-b]pyridin-5-one]	99%
O=C1c2cc(-c3nnc(C(F)F)o3)ccc2CN1c1ccc(F)cc1-n1cc(Cl)cn1 [Example 451, 2-(2-(4-chloro-1H-pyrazol-1-yl)-4-fluoro-phenyl)-6-(5-(difluoro-methyl)-1,3,4-oxadiazol-2-yl) isoindolin-1-one]	98%
O=C1c2cc(-c3nnc(C(F)F)o3)cc(F)c2CN1[C@@H]1COCC[C@H]1NCC(F)(F)F [Example 361, 6-(5-(difluoromethyl)-1,3,4-oxadiazol-2-yl)-4-fluoro-2-((3S,4R)-4-((2,2,2-trifluoro-ethyl)amino)tetrahydro-2H-pyran-3-yl)isoindolin-1-one]	101%
COC(=O)N[C@@H]1CCCC[C@H]1N1Cc2c(F)cc(-c3nnc(C(F)F)o3)cc2C1=O [Example 153, methyl ((1R,2R)-2-(6-(5-(difluoromethyl)-1,3,4-oxadiazol-2-yl)-4-fluoro-1-oxo-1,3-dihydro-2H-isoindol-2-yl)cyclohexyl)carbamate]	100%
COC(=O)N1CCOC[C@@H]1CN1Cc2ccc(-c3nnc(C(F)F)o3)cc2C1=O [Example 48, methyl (3S)-3-((6-(5-(difluoromethyl)-1,3,4-oxadiazol-2-yl)-1-oxo-1,3-dihydro-2H-isoindol-2-yl)methyl)morpholine-4-carboxylate]	98%
O=C(N[C@@H]1CCCC[C@H]1N1Cc2ccc(-c3nnc(C(F)F)o3)cc2C1=O)c1ccccc1 [Example 98, N-((1R,2R)-2-(6-(5-(difluoromethyl)-1,3,4-oxadiazol-2-yl)-1-oxo-1,3-dihydro-2H-isoindol-2-yl)cyclohexyl)benzamide]	101%
CC(F)(F)C(=O)N1CC[C@@H](N2Cc3ccc(-c4nnc(C(F)F)o4)cc3C2=O)[C@H](c2ccc(F)cc2)C1 [Example 506, 6-(5-(difluoro-methyl)-1,3,4-oxadiazol-2-yl)-2-((3R,4R)-1-(2,2-difluoro-propanoyl)-3-(4-fluorophenyl)piperidin-4-yl) isoindolin-1-one]	99%
O=C(NCC(F)(F)F)C1CC(F)(F)CCN1N1Cc2ccc(-c3nnc(C(F)F)o3)cc2C1=O (stereo not drawn) [Example 564, 1-(6-(5-(difluoromethyl)-1,3,4-oxadiazol-2-yl)-1-oxo-1,3-dihydro-2H-isoindol-2-yl)-4,4-difluoro-N-(2,2,2-trifluoroethyl)piperidine-2-carboxamide]	100%
O=C1c2cc(-c3nnc(C(F)F)o3)ccc2CN1[C@@H]1CCOC[C@@H]1NCC(F)(F)C(F)(F)F [Example 416, 6-(5-(difluoro-methyl)-1,3,4-oxadiazol-2-yl)-2-((3R,4R)-3-((2,2,3,3,3-pentafluoro-propyl)amino)tetrahydro-2H-pyran-4-yl) isoindolin-1-one]	101%
CC(C)(C)OC(=O)NC1CCC(c2cc(F)ccc2N2Cc3ccc(-c4nnc(C(F)F)o4)cc3C2=O)CC1 (stereo not drawn) [Example 525, tert-butyl (4-(2-(6-(5-(difluoromethyl)-1,3,4-oxadiazol-2-yl)-1-oxo-1,3-dihydro-2H-isoindol-2-yl)-5-fluorophenyl)cyclohexyl)carbamate]	100%
O=C1c2cc(-c3nnc(C(F)F)o3)cnc2CN1[C@@H]1CCCC[C@H]1NC(=O)C(F)(F)C(F)(F)F [Example 196, N-((1R,2R)-2-(3-(5-(difluoromethyl)-1,3,4-oxadiazol-2-yl)-5-oxo-5,7-dihydro-6H-pyrrolo[3,4-b]pyridin-6-yl)cyclohexyl)-2,2,3,3,3-pentafluoropropanamide]	100%
N[C@H]1COCC[C@H]1N1Cc2ccc(-c3nnc(C(F)F)o3)cc2C1=O [Example 414, 2-((3R,4R)-3-aminotetra-hydro-2H-pyran-4-yl)-6-(5-(difluoro-methyl)-1,3,4-oxadiazol-2-yl) isoindolin-1-one]	87%
